Read-outs that look alike come from different tables or passages of the source.
Tests used:
CA IX [1] = target: T1, CA IX (Homo sapiens, UniProt Q16790); assay: biochemical
CA IX [2] = target: T1, CA IX; conditions: cited from earlier work
[3] = library compounds with IDs A… and B…, from observed Ki (nM)
[4] = experimental value used for the QSPR model, library compounds (IDs A…, B…), equals log10 of Ki in nM
[5] = library compounds (IDs A…, B…) of Table S4, ref ChEMBL and BindingDB, read-out: Ki
[6] = library compounds (IDs A…, B…), values equal log10 of Ki in nM, ref ChEMBL and BindingDB
[7] = observed Ki of library compounds (IDs A…, B…), ref ChEMBL and BindingDB, read-out: Ki
[8] = experimental pKi towards CA IX, library compounds, ref ChEMB database (ID A), BindingDB (ID B)
[9] = observed Ki towards CA IX, library compounds, ref ChEMB database (ID A), BindingDB (ID B), read-out: Ki

O=c1ccc2ccc(OCc3cn(-c4ccc(C(F)(F)F)cc4)nn3)cc2o1 [A0920]
log10 of Ki in nM (CA IX [1]; experimental value from the library Ki (IDs A…, B…), values equal log10 of Ki in nM): 1.362

NOC(=O)c1cc(Cl)c(Cl)c(C(=O)ON)c1 [B0452]
log10 of Ki in nM (CA IX [1]): 1.699

NS(=O)(=O)c1ccc(C(=O)NNC(=O)Nc2ccc([N+](=O)[O-])cc2)cc1 [A0170]
log10 of Ki in nM (CA IX [1]): 0.505

NS(=O)(=O)c1ccc(OCc2ccc(F)cc2)cc1 [A0463]
log10 of Ki in nM (CA IX [1]): 0.869

NS(=O)(=O)c1ccc(-c2cn([C@@H]3O[C@H](CO)[C@@H](O)[C@H](O)[C@H]3O)nn2)cc1 [A1466]
log10 of Ki in nM (CA IX [1]): 1.897

NS(=O)(=O)c1ccc(CNC(=O)Cc2ccccc2)cc1 [A1701]
log10 of Ki in nM (CA IX [1]; [3]): 2.134

COC(=O)[C@H]1O[C@@H](n2cc(COC(=O)c3ccc(S(N)(=O)=O)cc3)nn2)[C@H](OC(C)=O)[C@@H](OC(C)=O)[C@@H]1OC(C)=O [A1674]
log10 of Ki in nM (CA IX [1]): 2.097

CCOC(=O)c1ccc(NC(=O)NNC(=O)c2ccc(S(N)(=O)=O)cc2)cc1 [A0551]
log10 of Ki in nM (CA IX [1]; [3]): 0.929

O=C(Cc1ccccc1Br)Oc1ccc2c(c1)OS(=O)(=O)C=C2 [A2451]
Ki (CA IX [1]; experimental value used for the QSPR model, library compounds (IDs A…, B…), equals log10 of Ki in nM, read-out: pKi (exp.) (converted)): 10000 nM

C#CCOc1ccc(S(N)(=O)=O)cc1 [A0523]
log10 of Ki in nM (CA IX [1]; [4]): 0.914

NS(=O)(=O)OCCCCOS(N)(=O)=O [A2532]
log10 of Ki in nM (CA IX [1]): 4.732

CC(C)(C)OC(=O)N(CCCCN(CCCNC(=O)C(F)(F)F)C(=O)OC(C)(C)C)CCCNC(=O)C(F)(F)F [A2554]
log10 of Ki in nM (CA IX [1]; [3]): 5.093

CC1(C)CC(=O)C2=C(C1)N(c1ccc(S(N)(=O)=O)cc1)C1=C(C(=O)CC(C)(C)C1)C2c1ccc([N+](=O)[O-])cc1 [B0775]
log10 of Ki in nM (CA IX [1]; [4]): 3.009

CCCN(CCC)S(=O)(=O)c1ccc(C(=O)N[C@@H](CCSC)C(N)=O)cc1 [A0860]
log10 of Ki in nM (CA IX [1]; [3]): 1.301

NS(=O)(=O)c1ccc(-n2cc(CO[C@@H]3O[C@H](COCc4ccccc4)[C@@H](OCc4ccccc4)[C@H]3OCc3ccccc3)nn2)cc1 [A1497]
log10 of Ki in nM (CA IX [1]; [3]): 1.924

Cc1cc(C)c(S(=O)(=O)Nc2ccc(C3C4=C(CC(C)(C)CC4=O)N(c4ccc(S(N)(=O)=O)cc4)C4=C3C(=O)CC(C)(C)C4)cc2)c(C)c1 [A1534]
log10 of Ki in nM (CA IX [1]; [4]): 1.954

Cc1cc(S(N)(=O)=O)c(S/C(=N\Nc2ccc([N+](=O)[O-])cc2)c2ccccc2)cc1Cl [A2454]
Ki (CA IX [2]; [5]): 10000 nM
log10 of Ki in nM (CA IX [2]; [6]): 4.000

COc1cc(/C=C\C(=O)OCCCCO[N+](=O)[O-])ccc1OC(=O)c1ccc(S(N)(=O)=O)cc1 [B0225]
log10 of Ki in nM (CA IX [2]): 1.041
Ki (CA IX [2]; read-out: Ki): 11 nM

NS(=O)(=O)c1ccc2c(c1)S(=O)(=O)C[C@H]2OCc1ccccc1 [A0131]
Ki (CA IX [2]; [5]): 2.8 nM
log10 of Ki in nM (CA IX [2]; [6]): 0.447

N#Cc1ccc(-c2cs/c(=N\c3ccc(S(N)(=O)=O)cc3)n2C2CCCCC2)cc1 [B0361]
log10 of Ki in nM (CA IX [2]; [6]): 1.477
Ki (CA IX [2]; [7]): 30 nM

C[C@]12CC[C@H]3[C@@H]([C@H]1CCC2=O)[C@@H](O)C=C1C[C@@H](OS(N)(=O)=O)CC[C@]13C [B0490]
Ki (CA IX [2]): 65 nM
log10 of Ki in nM (CA IX [2]): 1.813

O=S(=O)(NO)N[C@H]1C=C[C@H](O)[C@@H](CO)O1 [A0589]
log10 of Ki in nM (CA IX [2]): 0.954
Ki (CA IX [2]; read-out: Ki): 9 nM

NS(=O)(=O)c1ccc(N[C@H]2SC[C@H](c3ccc(F)cc3F)N2C2CCCCC2)cc1 [B0547]
log10 of Ki in nM (CA IX [2]; [6]): 1.934
Ki (CA IX [2]; [7]): 86 nM

NS(=O)(=O)c1ccc(N[C@H]2SC[C@@H](c3ccc([N+](=O)[O-])cc3)N2C2CCCCC2)cc1 [B0353]
Ki (CA IX [2]; [5]): 29 nM
log10 of Ki in nM (CA IX [2]; [6]): 1.462

NS(=O)(=O)c1ccc(CCNS(=O)(=O)[C@@H]2O[C@@H](C(=O)O)[C@@H](O)[C@@H](O)[C@@H]2O)cc1 [B0584]
Ki (CA IX [2]; [5]): 96 nM
log10 of Ki in nM (CA IX [2]; [6]): 1.982

CC1=CC(C)C=C(C)N1CCc1ccccc1C [B0765]
log10 of Ki in nM (CA IX [2]; [6]): 2.919
Ki (CA IX [2]; [7]): 830 nM

O=C(Cc1ccccc1Br)Oc1ccc2c(c1)OS(=O)(=O)CC2 [A2452]
log10 of Ki in nM (CA IX [2]; [8]): 4.000
Ki (CA IX [2]; [9]): 10000 nM

NS(=O)(=O)c1ccc(-c2cn([C@H]3O[C@H](CO)[C@@H](O)[C@@H](O)[C@H]3O)nn2)cc1 [B0619]
log10 of Ki in nM (CA IX [2]): 2.079
Ki (CA IX [2]; read-out: Ki): 120 nM

COc1ccc2c(c1)CCN(S(N)(=O)=O)[C@H]2c1ccccc1 [A1457]
Ki (CA IX [2]; library compounds (IDs A…, B…), observed Ki towards CA IX, ref ChEMBL and BindingDB, read-out: Ki): 78 nM
log10 of Ki in nM (CA IX [2]; [6]): 1.892

CC(C)OS(N)(=O)=O [A2163]
Ki (CA IX [2]; read-out: Ki): 1000 nM

NS(=O)(=O)c1ccc(CC/N=C\c2ccc(-c3ccccn3)cc2)cc1 [A1025]
log10 of Ki in nM (CA IX [2]; [8]): 1.446
Ki (CA IX [2]; [9]): 27.9 nM

NS(=O)(=O)c1ccc(-n2cc(/C=N/Nc3nc(-c4cc5cc(Br)ccc5oc4=O)cs3)c(-c3ccc(Cl)cc3)n2)cc1 [B0302]
log10 of Ki in nM (CA IX [2]; [6]): 1.362
Ki (CA IX [2]; [7]): 23 nM

CC1=C[C@@H](C)C(C)=C(C)N1Cc1ccc(S(N)(=O)=O)cc1 [B0397]
log10 of Ki in nM (CA IX [2]; [6]): 1.544
Ki (CA IX [2]; [7]): 35 nM

COc1ccc2c(c1)CCN[C@H]2c1ccc(S(N)(=O)=O)cc1 [A0785]
log10 of Ki in nM (CA IX [2]): 1.188
Ki (CA IX [2]; read-out: Ki): 15.4 nM
